Test results as given in PubChem BioAssay (NCI).
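A five-concentration, 48-hour dose response in 96-well plates underlies each endpoint, interpolated linearly between surrounding concentrations. At the TGI there is no net growth.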

Experiments:
Experiment in all cases: inhibition of tumour cell growth, NCI panel, 48 h
HCT-116 colon = tested on: HCT-116 colon
SNB-19 CNS = tested on: SNB-19 CNS
SK-MEL-2 melanoma = tested on: SK-MEL-2 melanoma
SR leukemia = tested on: SR leukemia
OVCAR-5 ovarian = tested on: OVCAR-5 ovarian
786-0 renal = tested on: 786-0 renal
NCI-H460 lung = tested on: NCI-H460 lung
UACC-62 melanoma = tested on: UACC-62 melanoma
UACC-257 melanoma = tested on: UACC-257 melanoma
HCC-2998 colon = tested on: HCC-2998 colon
HCT-15 colon = tested on: HCT-15 colon
OVCAR-3 ovarian = tested on: OVCAR-3 ovarian
SK-OV-3 ovarian = tested on: SK-OV-3 ovarian
SF-539 CNS = tested on: SF-539 CNS
MDA-MB-231 breast = tested on: MDA-MB-231 breast
M14 melanoma = tested on: M14 melanoma
PC-3 prostate = tested on: PC-3 prostate
OVCAR-4 ovarian = tested on: OVCAR-4 ovarian
TK-10 renal = tested on: TK-10 renal
BT-549 breast = tested on: BT-549 breast
CCRF-CEM leukemia = tested on: CCRF-CEM leukemia
HT29 colon = tested on: HT29 colon
MALME-3M melanoma = tested on: MALME-3M melanoma
ACHN renal = tested on: ACHN renal
HL-60(TB) leukemia = tested on: HL-60(TB) leukemia
U251 CNS = tested on: U251 CNS
SF-295 CNS = tested on: SF-295 CNS
K-562 leukemia = tested on: K-562 leukemia
A498 renal = tested on: A498 renal
MCF7 breast = tested on: MCF7 breast
SF-268 CNS = tested on: SF-268 CNS
NCI-H23 lung = tested on: NCI-H23 lung
NCI/ADR-RES ovarian = tested on: NCI/ADR-RES ovarian
OVCAR-8 ovarian = tested on: OVCAR-8 ovarian
NCI-H522 lung = tested on: NCI-H522 lung
HOP-62 NSCLC = tested on: HOP-62 NSCLC
SN12C renal = tested on: SN12C renal
RPMI-8226 leukemia = tested on: RPMI-8226 leukemia
CAKI-1 renal = tested on: CAKI-1 renal
MDA-N = tested on: MDA-N
SK-MEL-28 melanoma = tested on: SK-MEL-28 melanoma
KM12 colon = tested on: KM12 colon
IGROV1 ovarian = tested on: IGROV1 ovarian
COLO 205 colon = tested on: COLO 205 colon
RXF 393 renal = tested on: RXF 393 renal
LOX IMVI melanoma = tested on: LOX IMVI melanoma
SK-MEL-5 melanoma = tested on: SK-MEL-5 melanoma
EKVX NSCLC = tested on: EKVX NSCLC
DU-145 prostate = tested on: DU-145 prostate
SW-620 colon = tested on: SW-620 colon
MOLT-4 leukemia = tested on: MOLT-4 leukemia
A549 NSCLC = tested on: A549 NSCLC
MDA-MB-435 = tested on: MDA-MB-435
T-47D breast = tested on: T-47D breast
HS 578T breast = tested on: HS 578T breast
NCI-H226 lung = tested on: NCI-H226 lung
SNB-75 CNS = tested on: SNB-75 CNS
UO-31 renal = tested on: UO-31 renal

Clc1ccc(Cl)c(NNc2cc(Cl)ccc2Cl)c1
TGI (HCT-116 colon): > 10000 nM | TGI (SNB-19 CNS): > 10000 nM | TGI (SK-MEL-2 melanoma): 8600 nM | TGI (SR leukemia): > 10000 nM | TGI (OVCAR-5 ovarian): > 10000 nM | TGI (786-0 renal): > 10000 nM | TGI (NCI-H460 lung): > 10000 nM | TGI (UACC-62 melanoma): > 10000 nM | TGI (UACC-257 melanoma): > 10000 nM | TGI (HCC-2998 colon): > 10000 nM | TGI (HCT-15 colon): > 10000 nM | TGI (OVCAR-3 ovarian): 7810 nM | TGI (SK-OV-3 ovarian): > 10000 nM | TGI (SF-539 CNS): > 10000 nM | TGI (MDA-MB-231 breast): > 10000 nM | TGI (M14 melanoma): > 10000 nM | TGI (PC-3 prostate): > 10000 nM | TGI (OVCAR-4 ovarian): > 10000 nM | TGI (TK-10 renal): > 10000 nM | TGI (BT-549 breast): > 10000 nM | TGI (CCRF-CEM leukemia): > 10000 nM | TGI (HT29 colon): > 10000 nM | TGI (MALME-3M melanoma): 9700 nM | TGI (ACHN renal): 7430 nM | TGI (HL-60(TB) leukemia): > 10000 nM | TGI (U251 CNS): > 10000 nM | TGI (SF-295 CNS): > 10000 nM | TGI (K-562 leukemia): > 10000 nM | TGI (A498 renal): > 10000 nM | TGI (MCF7 breast): > 10000 nM | TGI (SF-268 CNS): > 10000 nM | TGI (NCI-H23 lung): 7180 nM | TGI (NCI/ADR-RES ovarian): 9000 nM | TGI (OVCAR-8 ovarian): > 10000 nM | TGI (NCI-H522 lung): > 10000 nM | TGI (HOP-62 NSCLC): > 10000 nM | TGI (SN12C renal): > 10000 nM | TGI (RPMI-8226 leukemia): > 10000 nM | TGI (CAKI-1 renal): > 10000 nM | TGI (MDA-N): > 10000 nM | TGI (SK-MEL-28 melanoma): > 10000 nM | TGI (KM12 colon): > 10000 nM | TGI (IGROV1 ovarian): > 10000 nM | TGI (COLO 205 colon): > 10000 nM | TGI (RXF 393 renal): > 10000 nM | TGI (LOX IMVI melanoma): > 10000 nM | TGI (SK-MEL-5 melanoma): 6350 nM | TGI (EKVX NSCLC): > 10000 nM | TGI (DU-145 prostate): > 10000 nM | TGI (SW-620 colon): > 10000 nM | TGI (MOLT-4 leukemia): > 10000 nM | TGI (A549 NSCLC): > 10000 nM | TGI (MDA-MB-435): > 10000 nM | TGI (T-47D breast): > 10000 nM | TGI (HS 578T breast): > 10000 nM | TGI (NCI-H226 lung): > 10000 nM

C#Cc1nc(N)c2ncn(C3OC(COS(N)(=O)=O)C(O)C3O)c2n1 (stereo not given)
TGI (HCT-116 colon): 288 nM | TGI (SNB-19 CNS): 266 nM | TGI (SK-MEL-2 melanoma): 19.6 nM | TGI (SR leukemia): < 17.2 nM | TGI (OVCAR-5 ovarian): 122 nM | TGI (786-0 renal): 797 nM | TGI (NCI-H460 lung): 634 nM | TGI (UACC-62 melanoma): 369 nM | TGI (UACC-257 melanoma): 339 nM | TGI (HCC-2998 colon): 191 nM | TGI (HCT-15 colon): 429 nM | TGI (SNB-75 CNS): 349 nM | TGI (OVCAR-3 ovarian): 90.1 nM | TGI (SK-OV-3 ovarian): < 10 nM | TGI (SF-539 CNS): 198 nM | TGI (MDA-MB-231 breast): < 47.6 nM | TGI (M14 melanoma): 457 nM | TGI (PC-3 prostate): 213 nM | TGI (TK-10 renal): 327 nM | TGI (BT-549 breast): 349 nM | TGI (CCRF-CEM leukemia): < 25.8 nM | TGI (HT29 colon): 481 nM | TGI (ACHN renal): 74.3 nM | TGI (U251 CNS): 449 nM | TGI (SF-295 CNS): 3170 nM | TGI (K-562 leukemia): > 100000 nM | TGI (A498 renal): < 30.2 nM | TGI (MCF7 breast): > 100000 nM | TGI (SF-268 CNS): 688 nM | TGI (NCI-H23 lung): 136 nM | TGI (NCI/ADR-RES ovarian): < 29.1 nM | TGI (OVCAR-8 ovarian): 194 nM | TGI (UO-31 renal): 150 nM | TGI (NCI-H522 lung): < 10 nM | TGI (HOP-62 NSCLC): 1970 nM | TGI (SN12C renal): 256 nM | TGI (RPMI-8226 leukemia): 110 nM | TGI (CAKI-1 renal): 225 nM | TGI (MDA-N): < 29.9 nM | TGI (SK-MEL-28 melanoma): 298 nM | TGI (KM12 colon): 352 nM | TGI (IGROV1 ovarian): 114 nM | TGI (RXF 393 renal): 86.6 nM | TGI (LOX IMVI melanoma): < 32.5 nM | TGI (SK-MEL-5 melanoma): 344 nM | TGI (EKVX NSCLC): 1290 nM | TGI (DU-145 prostate): 99.7 nM | TGI (SW-620 colon): 665 nM | TGI (MOLT-4 leukemia): < 25.8 nM | TGI (A549 NSCLC): 1560 nM | TGI (MDA-MB-435): 71.7 nM | TGI (T-47D breast): < 10 nM | TGI (HS 578T breast): 736 nM | TGI (NCI-H226 lung): 49.1 nM
